“Also recorded” adds a separate entry of the source.

Experiment [1] relates to 143B cells. The experiment is described as follows: Amino acid and TCA cycle metabolite GC-MS analysis, 143B cells. Type of experiment: cell-based. As to the method:
143B and 143B CytB cells were seeded at 400,000 cells/well in 6 well dishes overnight. The following day, cells were washed 2 times in PBS and media was changed to proliferation assay media with or without the indicated treatments. […] Soluble content was then dried under nitrogen gas. Polar samples were derivatized and measured as detailed in (Lewis). Relative metabolite abundances were determined by integrating ion peak area (Metran) and normalized to norvaline internal extraction standard.

The test system of experiment [2] is 143B cells. As to the kind of experiment: Measurement of NAD+/NADH (NAD/NADH Glo) in 143B cells with respiration inhibitors. Type of experiment: cell-based. The note with it: 143B cells, ETC inhibitors plus AKB, 6 hours. On the procedure: NAD^+/NADH measurements were done using a modified version of manufacturer instructions of NAD/NADH Glo Assay (Promega). Cells were plated and treated as for proliferation assays and cell extracts were taken 6 hours after treatment. For extraction, cells were quickly washed 3 times in ice cold PBS, extracted in 100 μL ice cold lysis buffer (1% Dodecyltrimethylammonium bromide (DTAB) in 0.2 N NaOH diluted 1:1 with PBS), and immediately frozen at −80° C. To measure NADH, 20 μL of sample was moved to PCR tubes and incubated at 75° C. for 30 min, where the basic conditions will selectively degrade NAD^+. To measure NAD^+, 20 μL of the samples was moved to PCR tubes containing 20 μL lysis buffer and 20 μL 0.4 N HCl and incubated at 60° C. for 15 min, where acidic conditions will degrade NADH. Following incubations, samples were allowed to equilibrate to room temperature and then quenched by neutralizing with 20 μL 0.25 M Tris in 0.2 N HCl (NADH) or 20 μL 0.5 M Tris base (NAD^+). Manufacturer instructions were followed thereafter to measure NAD^+/NADH.

The subject of experiment [3] is lactate dehydrogenase (LDH). As to the kind of experiment: Lactate dehydrogenase assay (disappearance of NADH absorbance). Type of experiment: biochemical. The conditions noted are these: 1 mM α-ketobutyrate, 180 μM NADH, absorbance at 340 nm. As to the method: Immediately prior to the start of the assay 100 μL of a reaction buffer containing 50 mM HEPES-KOH pH 7.5, 20 mM KCl, 2 mM MgCl2, 1 mM DTT, 180 μM NADH, 1 mM α-ketobutyrate (where applicable) was combined with LDH (where applicable) in 96-well plates. Lactate dehydrogenase activity was assayed by monitoring disappearance of NADH absorbance at 340 nm over time.

The subject of experiment [4] is 143B cells. The experiment is described as follows: Mitochondrial oxygen consumption (Seahorse XF24), cells treated with respiration inhibitors. Type of experiment: cell-based. The note with it: ETC inhibitors plus AKB. On the procedure: Oxygen consumption rates were determined on a Seahorse Bioscience Extracellular Flux Analyzer (XF24). Cells were plated in Seahorse Bioscience 24 well plates at 6E4 cells per well in 100 μL complete DMEM, allowed to attach for 1 hour, and 500 μl complete DMEM was added before overnight incubation. The following day cells were washed 2 times in assay media: DMEM without phenol red or pyruvate containing 0.5% dialyzed FBS and 0.1 mg/mL uridine at pH 7.4 and incubated in 500 μL of the same media for the assay.

For a further experiment, the system named is Jurkat cells. As to the kind of experiment: Metabolite profiling (LC/MS) of Jurkat cells. The note with it: pyruvate 1 mM. Type of experiment: cell-based, human. As to the method: LC/MS analyses were conducted on a QExactive benchtop orbitrap mass spectrometer equipped with an Ion Max source and a HESI II probe, which was coupled to a Dionex UltiMate 3000 UPLC system (Thermo Fisher Scientific, San Jose, Calif.). External mass calibration was performed using the standard calibration mixture every 7 days.
Polar metabolites were extracted using 1 ml of ice-cold 80% methanol with 10 ng/ml valine-d8 as an internal standard. After a 10 min vortex and centrifugation for 10 min at 4° C. at 10,000 g, samples were dried under nitrogen gas. Dried samples were stored at −80° C. and then resuspended in 100 μL water; 1 μl of each sample was injected onto a ZIC-pHILIC 2.1×150 mm (5 μm particle size) column (EMD Millipore). Buffer A was 20 mM ammonium carbonate, 0.1% ammonium hydroxide; buffer B was acetonitrile. The chromatographic gradient was run at a flow rate of 0.150 ml/min as follows: 0-20 min.: linear gradient from 80% to 20% B; 20-20.5 min.: linear gradient from 20% to 80% B; 20.5-28 min.: hold at 80% B. The mass spectrometer was operated in fullscan, polarity switching mode with the spray voltage set to 3.0 kV, the heated capillary held at 275° C., and the HESI probe held at 350° C. The sheath gas flow was set to 40 units, the auxiliary gas flow was set to 15 units, and the sweep gas flow was set to 1 unit. The MS data acquisition was performed in a range of 70-1000 m/z, with the resolution set at 70,000, the AGC target at 106, and the maximum injection time at 80 msec. Relative quantitation of polar metabolites was performed with XCalibur QuanBrowser 2.2 (Thermo Fisher Scientific) using a 5 ppm mass tolerance and referencing an in-house library of chemical standards.

Regarding `CCC(=O)C(=O)O` [AKB, α-ketobutyrate], the “Aspartate level with AKB treatment” value with 143B cells [1] (143B CytB cells and inhibitor-treated 143B cells, relative to untreated cells) is on record as “restored aspartate to levels comparable to, or higher than, untreated cells”. In the experiment with 143B cells [1] (rotenone treated 143B cells, 24 hours, AKB or 1 mM asparagine), the Intracellular aspartate levels result was “increased intracellular aspartate”. In addition, the “Cellular NAD+/NADH ratio” value in the experiment on 143B cells [2] is given as “restored NAD^+/NADH”. The “Regeneration of NAD+ from NADH by LDH” value in experiment [3] is given as “capable of regenerating NAD^+ from NADH”. Moreover, the O2 consumption entry in the experiment on 143B cells [4] was “no effect on O2 consumption”.
Consider `CC(=O)C(=O)O` [pyruvate], for which the “Aspartate synthesis with pyruvate” value in the experiment with Jurkat cells (MDH1-null Jurkat cells treated with ETC inhibitors) was “did not stimulate aspartate synthesis; also recorded: depends on MDH1”. For the same molecule, the “Aspartate levels with pyruvate” value in the experiment on Jurkat cells (phenformin-treated (10 μM, 24 hours) GOT1-null Jurkat cells) is listed as “no effect on aspartate”; with Jurkat cells (phenformin-treated (10 μM, 24 hours) wild type Jurkat cells), “increases cellular aspartate levels in a GOT1-dependent manner; also recorded: restored aspartate levels to normal in phenformin-treated wild type cells”.

Source of the values: patent US10123985B2, “Therapeutic strategies for treating mitochondrial disorders” (Whitehead Institute for Biomedical Research, priority 2015, dated 2018).
